These compounds were tested on PDE4 (assay: Evaluation of PDE4 inhibitory activity, scintillation proximity assay). Settings: scintillation proximity assay; class symbols of Evaluation 1; read-out: PDE4 Inhibitory Activity (concentration for the inhibition rate of 50%, IC50), Evaluation 1.
Format: biochemical
Summary of the method: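 SPA with [2,8-3H]-cAMP and diluted PDE4 enzyme preparation in 50 mM Tris-HCl pH 7.4, 8.3 mM MgCl2, 1.7 mM EGTA, 3 mg/mL BSA, 120 min at room temperature. Product captured on ZnSO4-containing YSi-SPA beads, scintillation counted; IC50 from inhibition curves vs DMSO control and no-enzyme blank.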
For `FC(F)(F)COc1cc(-c2nccs2)c2oc(N3CC4CC(C3)N4)nc2c1` [Example 67, 2-(3,6-Diazabicyclo[3.1.1]heptan-3-yl)-7-(thiazol-2-yl)-5-(2,2,2-trifluoroethoxy)benzo[d]oxazole], the IC50 was less than 100 nM. In the case of `CC(=O)Nc1cc(-c2nccs2)c2oc(N3CC4CCCC(C3)N4)nc2c1` [Example 48, N-(2-(3,9-diazabicyclo[3.3.1]nonan-3-yl)-7-(thiazol-2-yl)benzo[d]oxazol-5-yl)acetamide], the IC50 is reported as less than 100 nM. For `COC(c1cc(-c2nccs2)c2oc(N3CC4CCC(C3)N4)nc2c1)C(F)(F)F` (centres unmarked) [Example 142, 2-(3,8-Diazabicyclo[3.2.1]octan-3-yl)-7-(thiazol-2-yl)-5-(2,2,2-trifluoro-1-methoxyethyl)benzo[d]oxazole], the IC50 was less than 100 nM. `FC(F)(F)Oc1cc(-c2nccs2)c2oc(N3CC4CCC(C3)N4)nc2c1` [Example 54, 2-(3,8-Diazabicyclo[3.2.1]octan-3-yl)-7-(thiazol-2-yl)-5-(trifluoromethoxy)benzo[d]oxazole] was tested, and the IC50 was less than 100 nM. `FC(F)(F)Oc1c(Cl)cc(-c2ccco2)c2oc(N3CC4CCC(C3)N4)nc12` [Example 6, 2-(3,8-Diazabicyclo[3.2.1]octan-3-yl)-5-chloro-7-(furan-2-yl)-4-(trifluoromethoxy)benzo[d]oxazole] gave an IC50 of less than 100 nM. For `Oc1cc(-c2nccs2)c2oc(N3CC4CC(C3)N4)nc2c1` [Example 64, 2-(3,6-Diazabicyclo[3.1.1]heptan-3-yl)-7-(thiazol-2-yl)benzo[d]oxazol-5-ol], the IC50 was less than 100 nM. With `CC(O)(c1ccc(-c2nccs2)c2oc(N3CC4CCC(C3)N4)nc12)C(F)F` (centres unmarked) [Example 129, 2-(2-(3,8-Diazabicyclo[3.2.1]octan-3-yl)-7-(thiazol-2-yl)benzo[d]oxazol-4-yl)-1,1-difluoropropan-2-ol] the IC50 was less than 100 nM. For `CC(=O)OC(c1cc(-c2nccs2)c2oc(N3CC4CCC(C3)N4)nc2c1)C(F)(F)F` (centres unmarked) [Example 141, 1-(2-(3,8-Diazabicyclo[3.2.1]octan-3-yl)-7-(thiazol-2-yl)benzo[d]oxazol-5-yl)-2,2,2-trifluoroethyl acetate], the IC50 was less than 100 nM. With `CS(=O)(=O)c1cc(-c2nccs2)c2oc(N3CC4CCCC(C3)N4)nc2c1` [Example 47, 2-(3,9-Diazabicyclo[3.3.1]nonan-3-yl)-5-(methylsulfonyl)-7-(thiazol-2-yl)benzo[d]oxazole] the IC50 was less than 100 nM. With `Clc1ccc(-c2nccs2)c2oc(N3CC4CCC(C3)N4)nc12` [Example 36, 2-(3,8-Diazabicyclo[3.2.1]octan-3-yl)-4-chloro-7-(thiazol-2-yl)benzo[d]oxazole] the IC50 was less than 100 nM. For `CN(C)Cc1cc(-c2nccs2)c2oc(N3CC4CCC(C3)N4)nc2c1` [Example 169, 1-(2-(3,8-Diazabicyclo[3.2.1]octan-3-yl)-7-(thiazol-2-yl)benzo[d]oxazol-5-yl)-N,N-dimethylmethanamine], the IC50 was less than 100 nM. `OCc1ccc(-c2nccs2)c2oc(N3CC4CCCC(C3)N4)nc12` [Example 134, (2-(3,9-Diazabicyclo[3.3.1]nonan-3-yl)-7-(thiazol-2-yl)benzo[d]oxazol-4-yl)methanol] gave an IC50 of less than 100 nM. `FC(F)(F)c1c(Cl)cc(-n2cccn2)c2oc(N3CC4CCCC(C3)N4)nc12` [Example 16, 2-(3,9-Diazabicyclo[3.3.1]nonan-3-yl)-5-chloro-7-(1H-pyrazol-1-yl)-4-(trifluoromethyl)benzo[d]oxazole] was tested, and the IC50 was less than 100 nM. With `O=C(c1cc(-c2nccs2)c2oc(N3CC4CCC(C3)N4)nc2c1)N1CCOCC1` [Example 95, (2-(3,8-Diazabicyclo[3.2.1]octan-3-yl)-7-(thiazol-2-yl)benzo[d]oxazol-5-yl) (morpholino)methanone] the IC50 was less than 100 nM. For `COc1ccc(-c2nccs2)c2oc(N3CC4CC(C3)N4)nc12` [Example 76, 2-(3,6-Diazabicyclo[3.1.1]heptan-3-yl)-4-methoxy-7-(thiazol-2-yl)benzo[d]oxazole], the IC50 was less than 100 nM.

Same assay, conditions: scintillation proximity assay; read-out: PDE4 Inhibitory Activity (Evaluation 1; concentration for the inhibition rate of 50%)
With `CC(C)(O)c1cc(-c2cscn2)c2oc(N3CC4CCC(C3)N4)nc2c1OC(F)(F)F` [Example 291, 2-(2-(3,8-Diazabicyclo[3.2.1]octan-3-yl)-7-(thiazol-4-yl)-4-(trifluoromethoxy)benzo[d]oxazol-5-yl)propan-2-ol] the IC50 was less than 100 nM. For `CC(O)C(F)(F)Oc1ccc(-c2nccs2)c2oc(N3CC4CC(C3)N4)nc12` (racemic) [Example 250, 1-((2-(3,6-Diazabicyclo[3.1.1]heptan-3-yl)-7-(thiazol-2-yl)benzo[d]oxazol-4-yl)oxy)-1,1-difluoropropan-2-ol], the IC50 was less than 100 nM. In the case of `O=S1(=O)CCC(Oc2ccc(-c3nccs3)c3oc(N4CC5CC(C4)N5)nc23)CC1` [Example 314, 4-((2-(3,6-Diazabicyclo[3.1.1]heptan-3-yl)-7-(thiazol-2-yl)benzo[d]oxazol-4-yl)oxy)tetrahydro-2H-thiopyran 1,1-dioxide], the IC50 is reported as less than 100 nM. `CCC(F)(F)Oc1ccc(-c2nccs2)c2oc(N3CC4CC(C3)N4)nc12` [Example 402, 2-(3,6-Diazabicyclo[3.1.1]heptan-3-yl)-4-(1,1-difluoropropoxy)-7-(thiazol-2-yl)benzo[d]oxazole] showed an IC50 of less than 100 nM. In the case of `COC1(COC(c2ccc(-c3nccs3)c3oc(N4CC5CC(C4)N5)nc23)C(F)(F)F)CC1` (centres unmarked) [Example 282, 2-(3,6-Diazabicyclo[3.1.1]heptan-3-yl)-7-(thiazol-2-yl)-4-(2,2,2-trifluoro-1-((1-methoxycyclopropyl)methoxy)ethyl)benzo[d]oxazole], the IC50 is reported as less than 100 nM. `COC(=O)c1ccc(-c2nccs2)c2oc(N3CC4CCC(C3)N4)nc12` [Example 237, Methyl 2-(3,8-diazabicyclo[3.2.1]octan-3-yl)-7-(thiazol-2-yl)benzo[d]oxazole-4-carboxylate] showed an IC50 of less than 100 nM. `OCC(F)(F)OC(c1ccc(-c2nccs2)c2oc(N3CC4CC(C3)N4)nc12)C(F)(F)F` (centres unmarked) [Example 258, 2-(1-(2-(3,6-Diazabicyclo[3.1.1]heptan-3-yl)-7-(thiazol-2-yl)benzo[d]oxazol-4-yl)-2,2,2-trifluoroethoxy)-2,2-difluoroethan-1-ol] was tested, and the IC50 was less than 100 nM. `CC(O)(c1cc(-c2nccs2)c2oc(N3CC4CCC(C3)N4)nc2c1OC(F)(F)F)C(F)(F)F` (centres unmarked) [Example 217, 2-(2-(3,8-Diazabicyclo[3.2.1]octan-3-yl)-7-(thiazol-2-yl)-4-(trifluoromethoxy)benzo[d]oxazol-5-yl)-1,1,1-trifluoropropan-2-ol] was tested, and the IC50 was less than 100 nM. `FC(F)(/C=C/c1cccnc1)Oc1ccc(-c2nccs2)c2oc(N3CC4CC(C3)N4)nc12` [Example 406, (E)-2-(3,6-diazabicyclo[3.1.1]heptan-3-yl)-4-((1,1-difluoro-3-(pyridin-3-yl)allyl)oxy)-7-(thiazol-2-yl)benzo[d]oxazole] gave an IC50 of less than 100 nM. For `CC(C)(O)COc1ccc(-c2nccs2)c2oc(N3CC4CCC(C3)N4)nc12` [Example 264, 1-((2-(3,8-Diazabicyclo[3.2.1]octan-3-yl)-7-(thiazol-2-yl)benzo[d]oxazol-4-yl)oxy)-2-methylpropan-2-ol], the IC50 was less than 100 nM. `N#CC1CC(Oc2ccc(-c3nccs3)c3oc(N4CC5CC(C4)N5)nc23)C1` (centres unmarked) [Example 266, 3-((2-(3,6-Diazabicyclo[3.1.1]heptan-3-yl)-7-(thiazol-2-yl)benzo[d]oxazol-4-yl)oxy)cyclobutane-1-carbonitrile] gave an IC50 of less than 100 nM. `FC(F)Oc1ccc(-c2nccs2)c2oc(N3CC4CC(C3)N4)nc12` [Example 278, 2-(3,6-Diazabicyclo[3.1.1]heptan-3-yl)-4-(difluoromethoxy)-7-(thiazol-2-yl)benzo[d]oxazole] gave an IC50 of less than 100 nM. With `CN(C)C(=O)C(F)(F)Oc1ccc(-c2nccs2)c2oc(N3CC4CC(C3)N4)nc12` [Example 408, 2-((2-(3,6-Diazabicyclo[3.1.1]heptan-3-yl)-7-(thiazol-2-yl)benzo[d]oxazol-4-yl)oxy)-2,2-difluoro-N,N-dimethylacetamide] the IC50 was less than 100 nM. `COC(c1cc(-c2nccs2)c2oc(N3CC4CCC(C3)N4)nc2c1OC(F)(F)F)C(F)F` (centres unmarked) [Example 209, 2-(3,8-Diazabicyclo[3.2.1]octan-3-yl)-5-(2,2-difluoro-1-methoxyethyl)-7-(thiazol-2-yl)-4-(trifluoromethoxy)benzo[d]oxazole] was tested, and the IC50 was less than 100 nM. Compound `CC(C)(O)c1cc(-c2nccs2)c2oc(N3CC4CCC(C3)N4O)nc2c1OC(F)(F)F` [Example 368, 3-(5-(2-Hydroxypropan-2-yl)-7-(thiazol-2-yl)-4-(trifluoromethoxy)benzo[d]oxazol-2-yl)-3,8-diazabicyclo[3.2.1]octan-8-ol] has an IC50 of 100 to 1000 nM. `OC1CCC(Oc2ccc(-c3nccs3)c3oc(N4CC5CC(C4)N5)nc23)CC1` (centres unmarked) [Example 305, 4-((2-(3,6-Diazabicyclo[3.1.1]heptan-3-yl)-7-(thiazol-2-yl)benzo[d]oxazol-4-yl)oxy)cyclohexan-1-ol] was tested, and the IC50 was less than 100 nM. Compound `OC1(COC(c2ccc(-c3cscn3)c3oc(N4CC5CC(C4)N5)nc23)C(F)(F)F)CC1` (centres unmarked) [Example 286, 1-((1-(2-(3,6-Diazabicyclo[3.1.1]heptan-3-yl)-7-(thiazol-4-yl)benzo[d]oxazol-4-yl)-2,2,2-trifluoroethoxy)methyl)cyclopropan-1-ol] has an IC50 of less than 100 nM. In the case of `CC(O)c1cc(-c2nccs2)c2oc(N3CC4CC(C3)N4)nc2c1OC(F)(F)F` (centres unmarked) [Example 272, 1-(2-(3,6-Diazabicyclo[3.1.1]heptan-3-yl)-7-(thiazol-2-yl)-4-(trifluoromethoxy)benzo[d]oxazol-5-yl)ethan-1-ol], the IC50 is reported as less than 100 nM. For `CC(O)(c1ccc(-c2nccs2)c2oc(N3CC4CC(C3)N4)nc12)C(F)(F)F` (centres unmarked) [Example 270, 2-(2-(3,6-Diazabicyclo[3.1.1]heptan-3-yl)-7-(thiazol-2-yl)benzo[d]oxazol-4-yl)-1,1,1-trifluoropropan-2-ol], the IC50 was less than 100 nM. For `O=S(=O)(c1ccc(-c2nccs2)c2oc(N3CC4CC(C3)N4)nc12)N1CCCC1` [Example 390, 2-(3,6-Diazabicyclo[3.1.1]heptan-3-yl)-4-(pyrrolidin-1-ylsulfonyl)-7-(thiazol-2-yl)benzo[d]oxazole], the IC50 was less than 100 nM.
